Measurements: patent US20250041429A1, “COMPOUND HAVING BTK PROTEIN DEGRADATION ACTIVITY, AND MEDICAL USES THEREOF” (UBIX THERAPEUTICS, INC., priority 2021, published 2025)

Target: T1, BTK protein (Homo sapiens, UniProt Q06187)
T1 construct: endogenous in cells; host or cells: TMD-8 cells
Experiment: Measurement of BTK protein degradation ability in TMD-8 cells (Western blotting)
Type: cell-based
Settings: harvested after 24 hours; for BTK degradation (%) 1 nM: compound 1 nM; for BTK degradation (%) 10 nM: compound 10 nM; for BTK degradation (%) 100 nM: compound 100 nM
Method in brief: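 TMD-8 cells (1×10^6/mL) were treated for 24 h with compound at 0.1, 1, 10 μM or 0.0001–0.1 μM, with DMSO as vehicle control. RIPA lysates were normalized by BCA assay. BTK was detected by Western blot with anti-BTK, using GAPDH or β-actin as loading controls, and imaged on LI-COR Odyssey.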

T1 sequence (Q06187 whole entry): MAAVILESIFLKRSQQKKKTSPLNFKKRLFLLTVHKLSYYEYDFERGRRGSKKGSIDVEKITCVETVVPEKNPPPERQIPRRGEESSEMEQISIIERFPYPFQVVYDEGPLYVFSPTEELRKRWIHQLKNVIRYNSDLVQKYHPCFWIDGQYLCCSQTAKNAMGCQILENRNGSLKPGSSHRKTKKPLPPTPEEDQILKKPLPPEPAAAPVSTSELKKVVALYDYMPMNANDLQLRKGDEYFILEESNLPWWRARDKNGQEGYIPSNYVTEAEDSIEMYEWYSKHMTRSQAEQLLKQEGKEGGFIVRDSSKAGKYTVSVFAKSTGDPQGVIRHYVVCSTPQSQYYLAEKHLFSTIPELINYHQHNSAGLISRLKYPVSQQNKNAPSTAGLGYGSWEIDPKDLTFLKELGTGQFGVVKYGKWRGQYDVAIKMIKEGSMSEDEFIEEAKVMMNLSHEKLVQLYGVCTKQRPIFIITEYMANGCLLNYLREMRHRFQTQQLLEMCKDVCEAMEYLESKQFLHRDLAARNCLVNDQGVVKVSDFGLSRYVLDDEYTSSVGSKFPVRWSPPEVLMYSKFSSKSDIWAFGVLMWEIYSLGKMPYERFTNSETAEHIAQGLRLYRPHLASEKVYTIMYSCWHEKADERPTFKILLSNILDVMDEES

| Structure (SMILES) | BTK degradation (%) 1 nM [%] | BTK degradation (%) 10 nM [%] | BTK degradation (%) 100 nM [%] |
| --- | --- | --- | --- |
| Cc1cc(-c2ccnc(Nc3ccc(N4CCN(CC5CCN(c6cccc(NC7CCC(=O)NC7=O)c6)CC5)CC4)cc3)n2)ccc1CNC(=O)c1cn(C(C)(C)C)nn1 (stereo not drawn) [Example 61, 1-(tert-butyl)-N-(4-(2-((4-(4-((1-(3-((2,6-dioxopiperidin-3-yl)amino)phenyl)piperidin-4-yl)methyl)piperazin-1-yl)phenyl)amino)pyrimidin-4-yl)-2-methylbenzyl)-1H-1,2,3-triazole-4-carboxamide] | 66.5 | 95.5 | 99.0 |
| Cc1cc(-c2ccnc(Nc3ccc(N4CCN(CC5CCN(c6ccc(NC7CCC(=O)NC7=O)cn6)CC5)CC4)cc3)n2)ccc1CNC(=O)c1cn(C(C)(C)C)nn1 (stereo not drawn) [Example 62] | 57.0 | 97.5 | 100.0 |
| Cc1cc(-c2ccnc(Nc3ccc(CN4CCN(CC5CCN(c6cccc(OC7CCC(=O)NC7=O)c6)CC5)CC4)cc3)n2)ccc1CNC(=O)N1CC(OC(C)C)C1 (stereo not drawn) [Example 63, N-(4-(2-((4-((4-((1-(3-((2,6-dioxopiperidin-3-yl)oxy)phenyl)piperidin-4-yl)methyl)piperazin-1-yl)methyl)phenyl)amino)pyrimidin-4-yl)-2-methylbenzyl)-3-isopropoxyazetidine-1-carboxamide] | 29.0 | 83.0 | 97.5 |
| Cc1cc(-c2ccnc(Nc3ccc(CN4CCN(CC5CCN(c6cccc(NC7CCC(=O)NC7=O)c6)CC5)CC4)cc3)n2)ccc1CNC(=O)N1CC(OC(C)C)C1 (stereo not drawn) [Example 64, N-(4-(2-((4-((4-((1-(3-((2,6-dioxopiperidin-3-yl)amino)phenyl)piperidin-4-yl)methyl)piperazin-1-yl)methyl)phenyl)amino)pyrimidin-4-yl)-2-methylbenzyl)-3-isopropoxyazetidine-1-carboxamide] | 43.0 | 92.5 | 98.5 |
| Cc1cc(-c2ccnc(Nc3ccc(N4CCN(CC5CCN(c6cccc(N7CCC(=O)NC7=O)c6)CC5)CC4)cc3)n2)ccc1CNC(=O)N1CC(OC(C)C)C1 [Example 65, N-(4-(2-((4-(4-((1-(3-(2,4-dioxotetrahydropyrimidin-1 (2H)-yl)phenyl)piperidin-4-yl)methyl)piperazin-1-yl)phenyl)amino)pyrimidin-4-yl)-2-methylbenzyl)-3-isopropoxyazetidine-1-carboxamide] | 32.5 | 92.0 | 99.0 |
| Cc1cc(-c2ccnc(Nc3ccc(N4CCN(CC5CCN(c6ccc(N7CCC(=O)NC7=O)cc6)CC5)CC4)cc3)n2)ccc1CNC(=O)N1CC(OC(C)C)C1 [Example 66, N-(4-(2-((4-(4-((1-(4-(2,4-dioxotetrahydropyrimidin-1 (2H)-yl)phenyl)piperidin-4-yl)methyl)piperazin-1-yl)phenyl)amino)pyrimidin-4-yl)-2-methylbenzyl)-3-isopropoxyazetidine-1-carboxamide] | 28.0 | 91.5 | 98.5 |
| Cc1cc(-c2ccnc(Nc3ccc(CN4CCN(CC5CCN(c6cccc(N7CCC(=O)NC7=O)c6)CC5)CC4)cc3)n2)ccc1CNC(=O)N1CC(OC(C)C)C1 [Example 67, N-(4-(2-((4-((4-((1-(3-(2,4-dioxotetrahydropyrimidin-1 (2H)-yl)phenyl)piperidin-4-yl)methyl)piperazin-1-yl)methyl)phenyl)amino)pyrimidin-4-yl)-2-methylbenzyl)-3-isopropoxyazetidine-1-carboxamide] | 13.5 | 77.0 | 98.0 |
| Cc1cc(-c2ccnc(Nc3ccc(CN4CCN(CC5CCN(c6ccc(N7CCC(=O)NC7=O)cc6)CC5)CC4)cc3)n2)ccc1CNC(=O)N1CC(OC(C)C)C1 [Example 68, N-(4-(2-((4-((4-((1-(4-(2,4-dioxotetrahydropyrimidin-1 (2H)-yl)phenyl)piperidin-4-yl)methyl)piperazin-1-yl)methyl)phenyl)amino)pyrimidin-4-yl)-2-methylbenzyl)-3-isopropoxyazetidine-1-carboxamide] | 22.5 | 88.0 | 99.0 |
| Cc1cc(-c2ccnc(Nc3ccc(CN4CCN(CC5CCN(c6cccc(NC7CCC(=O)NC7=O)c6)CC5)CC4)cc3)n2)ccc1CNC(=O)c1cn(C(C)(C)C)nn1 (stereo not drawn) [Example 69, 1-(tert-butyl)-N-(4-(2-((4-((4-((1-(3-((2,6-dioxopiperidin-3-yl)amino)phenyl)piperidin-4-yl)methyl)piperazin-1-yl)methyl)phenyl)amino)pyrimidin-4-yl)-2-methylbenzyl)-1H-1,2,3-triazole-4-carboxamide] | 61.5 | 95.0 | 99.5 |
| Cc1cc(-c2ccnc(Nc3ccc(N4CCN(CC5CCN(c6cccc(N7CCC(=O)NC7=O)c6)CC5)CC4)cc3)n2)ccc1CNC(=O)c1cn(C(C)(C)C)nn1 [Example 70, 1-(tert-butyl)-N-(4-(2-((4-(4-((1-(3-(2,4-dioxotetrahydropyrimidin-1 (2H)-yl)phenyl)piperidin-4-yl)methyl)piperazin-1-yl)phenyl)amino)pyrimidin-4-yl)-2-methylbenzyl)-1H-1,2,3-triazole-4-carboxamide] | 67.0 | 97.5 | 99.5 |
| Cc1cc(-c2ccnc(Nc3ccc(N4CCN(CC5CCN(c6ccc(N7CCC(=O)NC7=O)cc6)CC5)CC4)cc3)n2)ccc1CNC(=O)c1cn(C(C)(C)C)nn1 [Example 71, 1-(tert-butyl)-N-(4-(2-((4-(4-((1-(4-(2,4-dioxotetrahydropyrimidin-1 (2H)-yl)phenyl)piperidin-4-yl)methyl)piperazin-1-yl)phenyl)amino)pyrimidin-4-yl)-2-methylbenzyl)-1H-1,2,3-triazole-4-carboxamide] | 80.5 | 98.0 | 99.5 |
| Cc1cc(-c2ccnc(Nc3ccc(N4CCN(CC5CCN(c6ccc(NC7CCC(=O)NC7=O)cc6F)CC5)CC4)cc3)n2)ccc1CNC(=O)c1cn(C(C)(C)C)nn1 (stereo not drawn) [Example 72, 1-(tert-butyl)-N-(4-(2-((4-(4-((1-(4-((2,6-dioxopiperidin-3-yl)amino)-2-fluorophenyl)piperidin-4-yl)methyl)piperazin-1-yl)phenyl)amino)pyrimidin-4-yl)-2-methylbenzyl)-1H-1,2,3-triazole-4-carboxamide] | 62.5 | 95.5 | 99.0 |
| Cc1cc(-c2ccnc(Nc3ccc(N4CCN(CC5CCN(c6ccc(N7CCC(=O)NC7=O)cc6F)CC5)CC4)cc3)n2)ccc1CNC(=O)c1cn(C(C)(C)C)nn1 [Example 73] | 43.0 | 91.5 | 97.0 |
